Earlier results on two molecules are cited in US12296127B2, “Intravesical drug delivery devices” (Massachusetts Institute of Technology, priority 2007, dated 2025).

The conditions of data set [1]: oral delivery (ELMIRON); high first pass effect.
For data set [2] the following is noted: delivered orally or transdermally.

With Pentosan polysulfate sodium [PPS], the bioavailability in data set [1] was 3%.
Take `CCN(CC)CC#CCOC(=O)C(O)(c1ccccc1)C1CCCCC1` (stereo not drawn) [oxybutynin]: in data set [2], the “patients taking the drug who experience side effects” value is listed as “approximately 61%” and the “patients who stop treatment due to the severity of the side effects” value was 7 to 11%.
